Key:
[1] = target: T1, serotonin-2 receptor (5HT-2 receptor) (Rattus norvegicus, UniProt P14842); assay: serotonin-2 receptor binding assay (3H-ketanserin displacement); settings: frontal/parietal cortex membranes of male Sprague-Dawley rats
T1 construct: membrane preparations of frontal/parietal cortex from male Sprague-Dawley rats; from tissue; host or cells: frontal/parietal cortex membranes of male Sprague-Dawley rats
Experimental: The compounds described above are active e.g. in the following test system indicative of serotonin-2 receptor antagonism: The serotonin-2 receptor (also named 5-hydroxytryptamine-2 or 5HT-2 receptor) binding properties are determined in vitro by measuring the ability of said compounds to inhibit the specific binding of ^3 H-ketanserin in membrane preparations of frontal/parietal cortex from male Sprague-Dawley rats essentially as described by
Battaglia et al. in Life Sciences 33, 2011 (1983). IC50 values, representing the concentration of compound required to displace 50% of ^3 H-ketanserin, are determined by log-logit analysis of the specific binding data. Illustrative of the invention, the compound of example 1 is effective in the serotonin-2 receptor binding assay having an […] value of about 5 nM.

[2] = test system: Sidman avoidance responding; assay: Sidman avoidance model; format: in vivo, squirrel monkey (Samiri sciureus); settings: squirrel monkeys
Experimental: The test is carried out as follows: Adult male squirrel monkeys (Samiri sciureus, 700-1200 g) are trained to press a lever to delay by 20 sec. the delivery of a brief electrical footshock. If the animal fails to respond within a 20 sec. interval, brief (0.5 sec.) shocks (5 mA) are delivered every 20 sec. until the animal again presses the lever. The total number of avoidance responses and avoidance failures (shocks received) are recorded during the test session, which lasts 4 hours. The monkeys are tested two days per week, the first day serving as a baseline control. The test compound is administered orally in a cornstarch vehicle 10 min. prior to the start of the test session. […] An approximate dose ratio of three between avoidance blockade and induction of dyskinesias is found for the compound of example 1.

T1 sequence (P14842 whole entry): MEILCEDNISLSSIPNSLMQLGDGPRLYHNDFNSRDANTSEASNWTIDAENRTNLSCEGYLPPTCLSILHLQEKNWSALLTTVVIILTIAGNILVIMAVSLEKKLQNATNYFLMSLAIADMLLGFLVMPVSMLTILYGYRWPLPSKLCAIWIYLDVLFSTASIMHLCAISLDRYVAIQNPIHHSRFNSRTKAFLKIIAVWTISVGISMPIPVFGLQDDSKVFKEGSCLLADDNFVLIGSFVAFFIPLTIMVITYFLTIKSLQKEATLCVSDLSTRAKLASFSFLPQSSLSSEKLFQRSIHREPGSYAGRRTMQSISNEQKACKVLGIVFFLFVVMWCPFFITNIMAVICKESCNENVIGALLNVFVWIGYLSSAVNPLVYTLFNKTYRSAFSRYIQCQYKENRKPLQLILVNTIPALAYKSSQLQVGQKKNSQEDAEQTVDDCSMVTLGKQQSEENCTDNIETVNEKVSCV

## O=C(c1ccc(F)cc1)C1CCN(CC2CSc3ccc(F)cc3C2)CC1 (centres unmarked) [Example 1, 1-[(6-Fluoro-3,4-dihydro-2H-1-benzothiopyran-3-yl)methyl]-4-piperidinyl p-fluorophenyl ketone]
[1]
  EC50: ~5 nM
[2]
  dose ratio between avoidance blockade and induction of dyskinesias: three
